Data taken from ChEMBL document CHEMBL4808205, “Discovery of TAK-041: a Potent and Selective GPR139 Agonist Explored for the Treatment of Negative Symptoms Associated with Schizophrenia” (J Med Chem, 2021).

Columns and labels:
[1] = Oral bioavailability in mouse at 30 mg/kg after 1 hr; format: ADME, organism-based; details: in vivo
[2] = Volume of distribution in rat at 1 mg/kg, iv or 2 mg/kg, po; format: ADME, organism-based; details: in vivo
[3] = Cmax in rat at 1 mg/kg, iv or 2 mg/kg, po; format: ADME, organism-based; set-up: dose 2 mg/kg; details: in vivo
[4] = Bioavailability in rat at 1 mg/kg, iv; format: ADME, organism-based; details: in vivo, po 2 mg/kg vs iv 1 mg/kg
[5] = tested on: MDR1; experiment: Apparent permeability in dog MDCK-MDR1 cells; format: ADME, cell-based, Canis lupus familiaris
[6] = tested on: MDR1 (human); experiment: Permeability across apical to basolateral side in pig LLC-PK1 cells expressing human MDR1; format: ADME, cell-based, Sus scrofa; details: read-out: permeability
[7] = Free drug concentration in BALB/c mouse brain; format: ADME, tissue-based; details: in vivo
[8] = Lipophilicity, logD of compound; format: physicochemical; details: octanol/water

Row | bioavailability [1] | Vd [2] | Cmax [3] | bioavailability [4] | Papp [5] | Papp A→B [6] | Drug uptake(free) [7] | logD [8] | SMILES
1 | 30% | 2.1 L/kg | 94 ng/mL | 27% | – | – | – | – | Cc1ccc([C@H](C)NC(=O)Cn2nnc3ccccc3c2=O)cc1
2 | – | – | – | – | 9.1 ×10⁻⁶ cm/s | – | – | – | O=C(Cn1nnc2ccccc2c1=O)NCCc1ccc(Cl)cc1
3 | – | 0.6 L/kg | 15 ng/mL | 2% | – | – | – | – | COc1ccc2nnn(CC(=O)N[C@@H](C)c3ccc(C)cc3)c(=O)c2c1
4 | – | 1 L/kg | 961 ng/mL | 100% | – | 18.3 ×10⁻⁶ cm/s | < 10 nM | 2.4 | C[C@H](NC(=O)Cn1nnc2ccccc2c1=O)c1ccc(OC(F)(F)F)cc1 [ZELATRIAZIN]
5 | – | 0.4 L/kg | 541 ng/mL | 50% | – | – | < 10 nM | – | COc1cccc2nnn(CC(=O)N[C@@H](C)c3ccc(C)cc3)c(=O)c12
6 | – | 1.4 L/kg | 644 ng/mL | > 100% | – | – | < 10 nM | – | C[C@H](NC(=O)Cn1nnc2ccccc2c1=O)c1ccc(C(F)(F)F)cc1
